One assay deals with T1, CD45 (Homo sapiens, UniProt P08575).
T1 sequence (P08575 26-1306): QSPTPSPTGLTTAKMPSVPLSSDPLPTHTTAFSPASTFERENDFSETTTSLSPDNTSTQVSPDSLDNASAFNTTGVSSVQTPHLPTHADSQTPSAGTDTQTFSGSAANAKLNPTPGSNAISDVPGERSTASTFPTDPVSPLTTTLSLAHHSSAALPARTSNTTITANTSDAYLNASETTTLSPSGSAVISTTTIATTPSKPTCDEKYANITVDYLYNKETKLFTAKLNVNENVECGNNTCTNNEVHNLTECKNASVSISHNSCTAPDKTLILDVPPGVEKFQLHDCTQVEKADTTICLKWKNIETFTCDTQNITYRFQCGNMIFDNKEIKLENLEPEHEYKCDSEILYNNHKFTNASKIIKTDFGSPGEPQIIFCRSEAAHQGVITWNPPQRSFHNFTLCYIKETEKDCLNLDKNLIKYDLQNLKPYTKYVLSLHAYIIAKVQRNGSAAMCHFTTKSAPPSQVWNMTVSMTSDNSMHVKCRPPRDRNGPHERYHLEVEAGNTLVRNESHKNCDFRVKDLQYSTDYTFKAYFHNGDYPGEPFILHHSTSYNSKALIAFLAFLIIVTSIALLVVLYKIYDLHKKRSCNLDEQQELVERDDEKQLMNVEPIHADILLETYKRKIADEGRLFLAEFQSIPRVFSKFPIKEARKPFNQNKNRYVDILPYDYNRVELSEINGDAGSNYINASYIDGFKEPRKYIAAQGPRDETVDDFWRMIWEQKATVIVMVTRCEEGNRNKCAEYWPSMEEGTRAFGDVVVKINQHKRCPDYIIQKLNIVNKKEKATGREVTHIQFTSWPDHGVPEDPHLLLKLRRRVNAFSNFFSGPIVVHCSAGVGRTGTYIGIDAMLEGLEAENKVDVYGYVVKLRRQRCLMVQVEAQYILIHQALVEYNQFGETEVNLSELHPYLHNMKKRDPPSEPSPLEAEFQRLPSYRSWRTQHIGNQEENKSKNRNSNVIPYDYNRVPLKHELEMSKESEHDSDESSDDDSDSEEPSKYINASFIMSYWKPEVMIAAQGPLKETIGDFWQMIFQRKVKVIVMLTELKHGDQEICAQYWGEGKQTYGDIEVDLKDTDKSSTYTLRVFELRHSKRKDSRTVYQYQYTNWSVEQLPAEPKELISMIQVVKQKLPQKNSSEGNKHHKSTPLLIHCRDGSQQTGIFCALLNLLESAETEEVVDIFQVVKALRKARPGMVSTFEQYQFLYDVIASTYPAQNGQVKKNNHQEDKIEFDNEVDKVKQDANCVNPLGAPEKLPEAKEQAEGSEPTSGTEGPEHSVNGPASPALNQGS
Description: CD45 inhibitory activity. Format: biochemical.

In another assay the target is SHP1 (Homo sapiens, UniProt P29350). Description: SHP1 inhibitory activity. The format is biochemical.
SHP1, sequence (P29350 whole entry): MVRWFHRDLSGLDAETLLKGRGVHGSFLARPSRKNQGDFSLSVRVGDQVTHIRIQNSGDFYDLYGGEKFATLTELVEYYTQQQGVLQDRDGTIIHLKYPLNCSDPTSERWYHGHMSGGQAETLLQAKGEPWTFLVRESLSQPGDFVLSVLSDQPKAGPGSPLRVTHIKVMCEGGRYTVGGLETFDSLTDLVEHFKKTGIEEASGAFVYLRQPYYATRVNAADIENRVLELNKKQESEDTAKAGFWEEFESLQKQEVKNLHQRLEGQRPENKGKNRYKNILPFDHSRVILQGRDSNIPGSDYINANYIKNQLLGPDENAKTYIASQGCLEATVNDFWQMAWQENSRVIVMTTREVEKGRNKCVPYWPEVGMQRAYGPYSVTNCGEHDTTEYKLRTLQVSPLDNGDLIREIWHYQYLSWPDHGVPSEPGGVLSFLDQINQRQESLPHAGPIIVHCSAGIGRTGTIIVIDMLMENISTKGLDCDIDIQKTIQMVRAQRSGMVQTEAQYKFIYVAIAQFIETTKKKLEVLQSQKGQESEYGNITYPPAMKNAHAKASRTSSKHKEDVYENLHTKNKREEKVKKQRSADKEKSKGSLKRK
A further assay has as its target T2, PTP1b (Homo sapiens, UniProt P18031).
T2 sequence (P18031 1-435): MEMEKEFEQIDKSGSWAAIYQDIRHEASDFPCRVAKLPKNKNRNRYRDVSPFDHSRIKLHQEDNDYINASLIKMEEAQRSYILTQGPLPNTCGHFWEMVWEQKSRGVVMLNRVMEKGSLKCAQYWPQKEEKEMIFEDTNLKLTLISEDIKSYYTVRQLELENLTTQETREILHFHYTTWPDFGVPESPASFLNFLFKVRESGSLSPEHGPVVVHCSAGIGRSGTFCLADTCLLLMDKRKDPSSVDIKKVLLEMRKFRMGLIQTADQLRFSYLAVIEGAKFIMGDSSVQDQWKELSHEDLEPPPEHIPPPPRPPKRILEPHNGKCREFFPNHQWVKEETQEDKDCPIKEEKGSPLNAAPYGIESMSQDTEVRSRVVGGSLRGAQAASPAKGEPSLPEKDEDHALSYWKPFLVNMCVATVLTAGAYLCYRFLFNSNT
Description: Protein tyrosine phosphatase 1b inhibitory assay (pNPP substrate). To be noted: 37 °C, pH 6.0. The format is biochemical. On the procedure: The PTP1b inhibitory activity of the tested compounds was measured at 37 °C using p-nitrophenyl phosphate (pNPP) as the substrate. The reaction was performed in a 96-well plate (final volume of 150 μL) and incubated for 30 min in the assay buffer (50 mM citrate (pH 6.0), 0.1 M NaCl, 1 mM EDTA, and 1 mM dithiothreitol) at 37 °C. Subsequently, the reaction was terminated by the addition of 10 M NaOH and the amount of p-nitrophenyl was determined by measuring the absorbance at 405 nm.

Another assay relates to fungi. Further details: method as in PMID 23488669. Particulars: cited from earlier work.
The subject of a further assay is nematode. Description: anti-nematode activity.
The next assay concerns S. aureus. Further details: method as in doi:10.1007/s10600-016-1885-z. Particulars: cited from earlier work.
Another assay has as its system B. cereus. Further details: method as in doi:10.1007/s10600-016-1885-z. Particulars: cited from earlier work.
In assay [1] the test system is insulin-stimulated glucose consumption. Further details: method as in PMID 23647825. Particulars: cited from earlier work.

Where only a bound is given, the exact number is not on record here.

What is called IC50 is the point on the concentration scale where inhibition reaches its midpoint. High values mean lower potency, low ones higher potency. For `Cc1cc(O)cc(O)c1C(=O)O` [N1, Orsellinic acid], the IC50 against CD45, against SHP1 and on PTP1b was above 20 µM throughout.
As for `C[C@@H]1CCC/C=C/C=C/[C@H](O)C[C@@H](O)C/C=C\C=C\[C@@H](O)C/C=C/C=C\C(=O)O1` [N13, Macrolactin A], in the assay on fungi, the “antifungal activity MIC” value is 40 to 300 µM. Besides, the figures for the half-inhibitory concentration (IC50) against CD45, against SHP1 and against PTP1b were 17.9 µM, 14.6 ± 0.39 µM and above 20 µM, respectively.
As to `CC(C)C(O)CC[C@](C)(O)c1ccc(C(=O)O)cc1O` (stereo partly drawn) [N3, (7S)-(−)-10-Hydroxysydonic acid], the concentration for half-maximal inhibition (IC50) on CD45 was above 20 µM; at SHP1, above 20 µM; on PTP1b, 15.88 ± 0.13 µM; with nematode, 50 µM.
Take `CC(C)(O)CCCC(C)(O)c1ccc(C(=O)O)cc1O` (stereo in doubt) [N4, (R)-(−)-Hydroxysydonic acid]: the “MIC against S. aureus” value in the assay with S. aureus is “less than 25 μM”. The half-inhibitory concentration (IC50) at CD45 was above 20 µM; on SHP1 it was 15.72 ± 0.11 µM; at PTP1b, above 20 µM. In addition, the “MIC against B. cereus” value with B. cereus is “less than 25 μM”.
As for `CC(C)CCC[C@](C)(O)c1ccc(C(=O)O)cc1O` [N2, Sydonic acid], the results for the IC50 on CD45, on SHP1 and on PTP1b were above 20 µM, 8.35 ± 0.35 µM and 7.97 µM, respectively.
For `CC(C)CCCC(C)(O)c1ccc(C(=O)NC(CO)C(=O)O)cc1O` (centres unmarked) [N7, Serine sydonate], in that order: 16 µM, 11.68 ± 0.08 µM and 14.2 ± 0.21 µM.
As for `CC(C)CCC[C@](C)(O)c1ccc(CO)cc1O` [(S)-(+)-sydonol], the “effect on insulin-stimulated glucose consumption” value in assay [1] was “potentiated”.

The values above are taken from PMC7881642, “Inducing secondary metabolite production of Aspergillus sydowii through microbial co-culture with Bacillus subtilis” (Microbial Cell Factories, 2021).
